Measured values taken from patent publication US6730326B2, “Thermodynamically stable modification of 1-(4-carbazolyl-oxy-3[2-(2-methoxyphenoxy)-ethylamino]-2-propanol process for its preparation and pharmaceutical compositions containing it” (Roche Diagnostics GmbH, priority 1997, dated 2004).

Format: physicochemical
Experimental: A 1:1 mixture of Form I and Form II was suspended in isopropanol and agitated with a magnetic stirrer for 18 h in a tightly sealed glass […]. […] Subsequently the sample was filtered with a micro glass filter funnel (G3), dried and evacuated.

thermodynamic stability of the modification: thermodynamically stable form
SMILES: COc1ccccc1OCCNCC(O)COc1cccc2[nH]c3ccccc3c12 (racemic) [Form I, (±)1-(4-carbazolyloxy)-3-[2-(2-methoxyphenoxy)ethylamno]-2-propanole]
